The values that follow come from ChEMBL document CHEMBL3045389, “Synthesis and insect antifeedant activity of plumbagin derivatives” (2012).

Each structure is given as a SMILES string.

In one experiment the test system is Spodoptera litura. The experiment in a line: Antifeedant activity against prestarved healthy third-instar larval stage of Spodoptera litura assessed as area of leaf consumed after 6 hr by conventional no-choice leaf-disk bioassay. Type of experiment: functional.
The test system of another experiment is Achaea janata. Description: Antifeedant activity against prestarved healthy third-instar larval stage of Achaea janata assessed as area of leaf consumed after 6 hr by conventional no-choice leaf-disk bioassay. It is filed as functional.

Regarding `CCNC1=C(C)C(=O)c2cccc(OC)c2C1=O`, the ED50 is reported as more than 500 microg/cm2 with Spodoptera litura and 24.41 microg/cm2 with Achaea janata.

Take `CCCCCCCC/C=C/CCCCCCCCNC1=C(C)C(=O)c2cccc(OC)c2C1=O`: the figures for the ED50 with Spodoptera litura and in the experiment with Achaea janata were 180.36 microg/cm2 and 26.49 microg/cm2, respectively.

Regarding `COc1ccc(CNC2=C(C)C(=O)c3cccc(OC)c3C2=O)cc1`, the ED50 with Spodoptera litura and in the experiment on Achaea janata was more than 500 microg/cm2 each time.

Take `CCCCCCCCCNC1=C(C)C(=O)c2cccc(OC)c2C1=O`: the results for the ED50 with Spodoptera litura and in the experiment with Achaea janata were 32.5 microg/cm2 and 24.04 microg/cm2, respectively.

Regarding `CCCCCCCCCCNC1=C(C)C(=O)c2cccc(OC)c2C1=O`, the results for the ED50 in the experiment on Spodoptera litura and in the experiment with Achaea janata were 31.109 microg/cm2 and 30.25 microg/cm2, respectively.

Take `CCCNC1=C(C)C(=O)c2cccc(OC)c2C1=O`: the ED50 in the experiment with Spodoptera litura and with Achaea janata was more than 500 microg/cm2 each time.

Regarding `C=CCNC1=C(C)C(=O)c2cccc(OC)c2C1=O`, the ED50 with Spodoptera litura worked out at 31.22 microg/cm2; with Achaea janata, 13.51 microg/cm2.

Turning to `CCCCCCCCNC1=C(C)C(=O)c2cccc(OC)c2C1=O`, the ED50 with Spodoptera litura is on record as more than 500 microg/cm2; in the experiment on Achaea janata it was 44.76 microg/cm2.

As to `CCCCCCCCCCCCNC1=C(C)C(=O)c2cccc(OC)c2C1=O`, the ED50 was more than 500 microg/cm2 in the experiment with Spodoptera litura and 59.62 microg/cm2 in the experiment on Achaea janata.

Take `COc1cccc2c1C(=O)C(NCc1ccccc1)=C(C)C2=O`: the ED50 in the experiment on Spodoptera litura and in the experiment on Achaea janata was more than 500 microg/cm2 throughout.

As for `CCCCCCNC1=C(C)C(=O)c2cccc(OC)c2C1=O`, the ED50 with Spodoptera litura was determined as 278.34 microg/cm2; with Achaea janata it was 73.31 microg/cm2.

Turning to `COc1cccc2c1C(=O)C(NCc1ccc(F)cc1)=C(C)C2=O`, the values for the ED50 in the experiment with Spodoptera litura and in the experiment with Achaea janata were 302.32 microg/cm2 and 51.091 microg/cm2, respectively.

On to `CCCCCCCCCCCCCCCCNC1=C(C)C(=O)c2cccc(OC)c2C1=O`, for which the ED50 in the experiment on Spodoptera litura worked out at 16.77 microg/cm2; in the experiment with Achaea janata, 64.23 microg/cm2.

Consider `CC1=CC(=O)c2c(O)cccc2C1=O` [PLUMBAGIN], for which the ED50 with Spodoptera litura amounted to 43.71 microg/cm2; in the experiment with Achaea janata it was 23.97 microg/cm2.

Turning to `C/C=C(\C)C(=O)O[C@H]1C[C@@H](OC(C)=O)[C@@]2(C(=O)OC)CO[C@H]3[C@@H](O)[C@@](C)([C@]45O[C@@]4(C)[C@@H]4C[C@H]5O[C@@H]5OC=C[C@@]54O)[C@H]4[C@]1(CO[C@]4(O)C(=O)OC)[C@@H]32` [AZADIRACHTIN A], the values for the ED50 with Spodoptera litura and with Achaea janata were 0.89 microg/cm2 and 0.72 microg/cm2, respectively.

On to `CCCCNC1=C(C)C(=O)c2cccc(OC)c2C1=O`, for which the values for the ED50 in the experiment on Spodoptera litura and in the experiment with Achaea janata were 64.08 microg/cm2 and more than 500 microg/cm2, respectively.

On to `COc1cccc2c1C(=O)C(NCc1ccc(C(F)(F)F)cc1)=C(C)C2=O`, for which the figures for the ED50 with Spodoptera litura and in the experiment on Achaea janata were more than 500 microg/cm2 and 21.82 microg/cm2, respectively.
